# From patent US6528538B1, “Cyclic compounds useful in the treatment of dyslipidaemia, atherosclerosis and diabetes, pharamaceutical compositions and preparation process” (Merck Patentgesellschaft, priority 1998, dated 2003)
row,SMILES,melting point
1,O=C(O)C1OCC2(CCC2c2ccc(Cl)cc2)CO1 (stereo not drawn),171 °C
2,O=C(O)C1OCC2(CO1)c1ccccc1-c1ccccc12,158 to 160 °C
3,CCOC(=O)C1(c2ccc(Cl)cc2)OCC2(CCC2)CO1,117 °C
